Experiments:
[1] = system: IPOHE (Morningglory, Ivyleaf); assay: Preemergence herbicidal evaluation; assay type: in vivo, Ipomoea hederacea; conditions: rated 4-5 weeks after treatment
Outline: (§1)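 Steps: mix seeds into potting soil; plant atop ~1 inch soil; spray compound in aqueous acetone (~0.0156-0.500 kg/ha equivalent); maintain in greenhouse with watering; rate visually 0-9 versus control at 4-5 weeks.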

[2] = system: SETVI (Foxtail, Green); assay: Postemergence herbicidal evaluation; assay type: in vivo, Setaria viridis
Outline: (§2)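 Compound is applied as a foliar spray to seedlings about two weeks old, formulated in equal parts acetone and water with 0.5% TWEEN 20 and delivered at 40 psi to give about 0.0156–0.500 kg per hectare. Injury is rated visually 0–9 after four to five weeks.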

[3] = system: CHEAL (Lambsquarters, Common); assay: Preemergence herbicidal evaluation; assay type: in vivo, Chenopodium album; conditions: rated 4-5 weeks after treatment
Outline: as §1

[4] = system: GALAP (Galium); assay: Preemergence herbicidal evaluation; assay type: in vivo, Galium aparine; conditions: rated 4-5 weeks after treatment
Outline: as §1

[5] = system: GLXMAW (Soybean, Williams); assay: Postemergence herbicidal evaluation; assay type: in vivo, Glycine max, (L.) Merr. cv Williams
Outline: as §2

[6] = system: ECHCG (Barnyardgrass); assay: Preemergence herbicidal evaluation; assay type: in vivo, Echinochloa crus-galli; conditions: rated 4-5 weeks after treatment
Outline: as §1

[7] = system: CASOB (Sicklepod); assay: Preemergence herbicidal evaluation; assay type: in vivo, Cassia obtusifolia; conditions: rated 4-5 weeks after treatment
Outline: as §1

[8] = system: ABUTH (Velvetleaf); assay: Postemergence herbicidal evaluation; assay type: in vivo, Abutilon theophrasti
Outline: as §2

[9] = system: AMBEL (Ragweed, Common); assay: Postemergence herbicidal evaluation; assay type: in vivo, Ambrosia artemisifolia
Outline: as §2

[10] = system: ECHORC (Watergrass (Calif.)); assay: Postemergence weed control under flooded paddy conditions; assay type: in vivo, Echinochloa oryzoides; conditions: postemergence weeds, 3-4 weeks after treatment
Outline: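 Flood-water application, about 0.0313–0.500 kg/ha a.i. in aqueous/acetone 50/50 v/v; water depth 1.5–3 cm throughout. Weeds 3–5 cm, rice 1.5–2.5 leaf. Greenhouse; 0–9 visual rating vs control at 3–4 wk.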

[11] = system: IPOHE (Morningglory, Ivyleaf); assay: Postemergence herbicidal evaluation; assay type: in vivo, Ipomoea hederacea
Outline: as §2

[12] = system: ZEAMX (Corn, Field); assay: Preemergence herbicidal evaluation; assay type: in vivo, Zea mays; conditions: rated 4-5 weeks after treatment
Outline: as §1

[13] = system: TRZAWR (Wheat, Winter, cv Riband); assay: Postemergence herbicidal evaluation; assay type: in vivo, Triticum aestivum
Outline: as §2

[14] = system: ECHCG (Barnyardgrass); assay: Postemergence herbicidal evaluation; assay type: in vivo, Echinochloa crus-galli
Outline: as §2

With Cn1c(C(F)(F)F)cc(=O)n(-c2cc(/N=C3/SCC(=O)N3CC(=O)O)c(Cl)cc2F)c1=O [Compound 52, 2-{{2-Chloro-5-[3,6-dihydro-3-methyl-2,6-dioxo-4-(trifluoromethyl)-1(2H)-pyrimidinyl]-4-fluoro-phenyl}imino}-4-oxo-3-thiazolidineacetic acid] the “Preemergence herbicidal rating IPOHE” value ([1]; rate 0.0313 kg/ha) was 0.0, the “Preemergence herbicidal rating IPOHE” value ([1]; rate 0.0625 kg/ha) was 1.0 and the “Preemergence herbicidal rating IPOHE” value ([1]; rate 0.1250 kg/ha) was 2.0. The “Preemergence herbicidal rating IPOHE” value ([1]; rate 0.2500 kg/ha) was 9.0, the “Postemergence herbicidal rating SETVI” value ([2]; Rate 0.0158 kg/ha) was 1.0 and the “Postemergence herbicidal rating SETVI” value ([2]; Rate 0.0315 kg/ha) was 3.0. For the same compound, the “Postemergence herbicidal rating SETVI” value ([2]; Rate 0.0630 kg/ha) was 7.0, the “Preemergence herbicidal rating CHEAL” value ([3]; rate 0.0313 kg/ha) was 0.0 and the “Preemergence herbicidal rating CHEAL” value ([3]; rate 0.0625 kg/ha) was 6.0. The “Preemergence herbicidal rating CHEAL” value ([3]; rate 0.1250 kg/ha) was 9.0, the “Preemergence herbicidal rating CHEAL” value ([3]; rate 0.2500 kg/ha) was 9.0 and the “Preemergence herbicidal rating GALAP” value ([4]; rate 0.0313 kg/ha) was 0.0. For the same compound, the “Preemergence herbicidal rating GALAP” value ([4]; rate 0.0625 kg/ha) was 0.0, the “Preemergence herbicidal rating GALAP” value ([4]; rate 0.1250 kg/ha) was 0.0 and the “Preemergence herbicidal rating GALAP” value ([4]; rate 0.2500 kg/ha) was 7.0. The “Postemergence herbicidal rating GLXMAW” value ([5]; Rate 0.0158 kg/ha) was 5.0, the “Postemergence herbicidal rating GLXMAW” value ([5]; Rate 0.0315 kg/ha) was 6.0 and the “Postemergence herbicidal rating GLXMAW” value ([5]; Rate 0.0630 kg/ha) was 6.0. For the same compound, the “Preemergence herbicidal rating ECHCG” value ([6]; rate 0.0313 kg/ha) was 0.0, the “Preemergence herbicidal rating ECHCG” value ([6]; rate 0.0625 kg/ha) was 0.0 and the “Preemergence herbicidal rating ECHCG” value ([6]; rate 0.1250 kg/ha) was 0.0. The “Preemergence herbicidal rating ECHCG” value ([6]; rate 0.2500 kg/ha) was 1.0, the “Preemergence herbicidal rating CASOB” value ([7]; rate 0.0313 kg/ha) was 0.0 and the “Preemergence herbicidal rating CASOB” value ([7]; rate 0.0625 kg/ha) was 0.0. The “Preemergence herbicidal rating CASOB” value ([7]; rate 0.1250 kg/ha) was 1.0, the “Preemergence herbicidal rating CASOB” value ([7]; rate 0.2500 kg/ha) was 1.0 and the “Postemergence herbicidal rating ABUTH” value ([8]; Rate 0.0158 kg/ha) was 1.0. For the same compound, the “Postemergence herbicidal rating ABUTH” value ([8]; Rate 0.0315 kg/ha) was 9.0, the “Postemergence herbicidal rating ABUTH” value ([8]; Rate 0.0630 kg/ha) was 9.0 and the “Postemergence herbicidal rating AMBEL” value ([9]; Rate 0.0158 kg/ha) was 1.0. For the same compound, the “Postemergence herbicidal rating AMBEL” value ([9]; Rate 0.0315 kg/ha) was 3.0, the “Postemergence herbicidal rating AMBEL” value ([9]; Rate 0.0630 kg/ha) was 5.0 and the “Herbicidal rating ECHORC” value ([10]; rate 0.2500 kg/ha) was 0.0. For the same compound, the “Postemergence herbicidal rating IPOHE” value ([11]; Rate 0.0158 kg/ha) was 4.0, the “Postemergence herbicidal rating IPOHE” value ([11]; Rate 0.0315 kg/ha) was 9.0 and the “Postemergence herbicidal rating IPOHE” value ([11]; Rate 0.0630 kg/ha) was 9.0. For the same compound, the “Preemergence herbicidal rating ZEAMX” value ([12]; rate 0.0313 kg/ha) was 0.0, the “Preemergence herbicidal rating ZEAMX” value ([12]; rate 0.0625 kg/ha) was 0.0 and the “Preemergence herbicidal rating ZEAMX” value ([12]; rate 0.1250 kg/ha) was 1.0. For the same compound, the “Preemergence herbicidal rating ZEAMX” value ([12]; rate 0.2500 kg/ha) was 3.0, the “Postemergence herbicidal rating TRZAWR” value ([13]; Rate 0.0158 kg/ha) was 2.5 and the “Postemergence herbicidal rating TRZAWR” value ([13]; Rate 0.0315 kg/ha) was 3.0. The “Postemergence herbicidal rating TRZAWR” value ([13]; Rate 0.0630 kg/ha) was 4.5, the “Postemergence herbicidal rating ECHCG” value ([14]; Rate 0.0158 kg/ha) was 1.0 and the “Postemergence herbicidal rating ECHCG” value ([14]; Rate 0.0315 kg/ha) was 1.0. The “Postemergence herbicidal rating ECHCG” value ([14]; Rate 0.0630 kg/ha) was 4.0.

In the case of Cn1c(C(F)(F)F)cc(=O)n(-c2cc(N=C3SCC(=O)N3[C@@H](Cc3ccccc3)C(=O)O)c(Cl)cc2F)c1=O [Compound 53, α-Benzyl-2-{{2-chloro-5-[3,6-dihydro-3-methyl-2,6-dioxo-4-(trifluoromethyl)-1(2H)-pyrimidinyl]-4-fluorophenyl}imino}-4-oxo-3-thiazolidineacetic acid, L-], the “Preemergence herbicidal rating IPOHE” value ([1]; rate 0.0313 kg/ha) was 0.0, the “Preemergence herbicidal rating IPOHE” value ([1]; rate 0.0625 kg/ha) was 9.0 and the “Preemergence herbicidal rating IPOHE” value ([1]; rate 0.1250 kg/ha) was 9.0. For the same compound, the “Preemergence herbicidal rating IPOHE” value ([1]; rate 0.2500 kg/ha) was 9.0, the “Postemergence herbicidal rating SETVI” value ([2]; Rate 0.0158 kg/ha) was 6.0 and the “Postemergence herbicidal rating SETVI” value ([2]; Rate 0.0315 kg/ha) was 6.0. The “Postemergence herbicidal rating SETVI” value ([2]; Rate 0.0630 kg/ha) was 7.0, the “Preemergence herbicidal rating CHEAL” value ([3]; rate 0.0313 kg/ha) was 9.0 and the “Preemergence herbicidal rating CHEAL” value ([3]; rate 0.0625 kg/ha) was 9.0. For the same compound, the “Preemergence herbicidal rating CHEAL” value ([3]; rate 0.1250 kg/ha) was 9.0, the “Preemergence herbicidal rating CHEAL” value ([3]; rate 0.2500 kg/ha) was 9.0 and the “Preemergence herbicidal rating GALAP” value ([4]; rate 0.0313 kg/ha) was 0.0. For the same compound, the “Preemergence herbicidal rating GALAP” value ([4]; rate 0.0625 kg/ha) was 0.0, the “Preemergence herbicidal rating GALAP” value ([4]; rate 0.1250 kg/ha) was 0.0 and the “Preemergence herbicidal rating GALAP” value ([4]; rate 0.2500 kg/ha) was 7.0. The “Postemergence herbicidal rating GLXMAW” value ([5]; Rate 0.0158 kg/ha) was 9.0, the “Postemergence herbicidal rating GLXMAW” value ([5]; Rate 0.0315 kg/ha) was 9.0 and the “Postemergence herbicidal rating GLXMAW” value ([5]; Rate 0.0630 kg/ha) was 9.0. The “Preemergence herbicidal rating ECHCG” value ([6]; rate 0.0313 kg/ha) was 1.0, the “Preemergence herbicidal rating ECHCG” value ([6]; rate 0.0625 kg/ha) was 4.0 and the “Preemergence herbicidal rating ECHCG” value ([6]; rate 0.1250 kg/ha) was 7.0. For the same compound, the “Preemergence herbicidal rating ECHCG” value ([6]; rate 0.2500 kg/ha) was 9.0, the “Preemergence herbicidal rating CASOB” value ([7]; rate 0.0313 kg/ha) was 0.0 and the “Preemergence herbicidal rating CASOB” value ([7]; rate 0.0625 kg/ha) was 0.0. The “Preemergence herbicidal rating CASOB” value ([7]; rate 0.1250 kg/ha) was 1.0, the “Preemergence herbicidal rating CASOB” value ([7]; rate 0.2500 kg/ha) was 1.0 and the “Postemergence herbicidal rating ABUTH” value ([8]; Rate 0.0158 kg/ha) was 9.0. For the same compound, the “Postemergence herbicidal rating ABUTH” value ([8]; Rate 0.0315 kg/ha) was 9.0, the “Postemergence herbicidal rating ABUTH” value ([8]; Rate 0.0630 kg/ha) was 9.0 and the “Postemergence herbicidal rating AMBEL” value ([9]; Rate 0.0158 kg/ha) was 9.0. For the same compound, the “Postemergence herbicidal rating AMBEL” value ([9]; Rate 0.0315 kg/ha) was 9.0, the “Postemergence herbicidal rating AMBEL” value ([9]; Rate 0.0630 kg/ha) was 9.0 and the “Herbicidal rating ECHORC” value ([10]; rate 0.0313 kg/ha) was 0.0. The “Herbicidal rating ECHORC” value ([10]; rate 0.0625 kg/ha) was 0.0, the “Herbicidal rating ECHORC” value ([10]; rate 0.1250 kg/ha) was 2.0 and the “Herbicidal rating ECHORC” value ([10]; rate 0.2500 kg/ha) was 3.0. For the same compound, the “Postemergence herbicidal rating IPOHE” value ([11]; Rate 0.0158 kg/ha) was 9.0, the “Postemergence herbicidal rating IPOHE” value ([11]; Rate 0.0315 kg/ha) was 9.0 and the “Postemergence herbicidal rating IPOHE” value ([11]; Rate 0.0630 kg/ha) was 9.0. The “Preemergence herbicidal rating ZEAMX” value ([12]; rate 0.0313 kg/ha) was 1.0, the “Preemergence herbicidal rating ZEAMX” value ([12]; rate 0.0625 kg/ha) was 1.0 and the “Preemergence herbicidal rating ZEAMX” value ([12]; rate 0.1250 kg/ha) was 5.0. For the same compound, the “Preemergence herbicidal rating ZEAMX” value ([12]; rate 0.2500 kg/ha) was 6.0, the “Postemergence herbicidal rating TRZAWR” value ([13]; Rate 0.0158 kg/ha) was 2.5 and the “Postemergence herbicidal rating TRZAWR” value ([13]; Rate 0.0315 kg/ha) was 3.0. For the same compound, the “Postemergence herbicidal rating TRZAWR” value ([13]; Rate 0.0630 kg/ha) was 4.0, the “Postemergence herbicidal rating ECHCG” value ([14]; Rate 0.0158 kg/ha) was 2.0 and the “Postemergence herbicidal rating ECHCG” value ([14]; Rate 0.0315 kg/ha) was 3.0. The “Postemergence herbicidal rating ECHCG” value ([14]; Rate 0.0630 kg/ha) was 9.0.
